The nature of series [1]: Solubility of cocrystals and their constituents in organic solvents (shake-flask, HPLC). The settings on record: for solubility at 48 h: organic solvent or mixture, thermodynamic from solid; for Cp∙10^2, solubility of pure component: 293.15 K, value is C∙10^2. As for the experimental part:
For the [CBZ + 3AcAmBA] (1:1) cocrystal, methanol was used. For [CBZ + 4AcAmBA] (1:1), all the experiments were performed in acetonitrile. An excess of the solid was placed in an Eppendorf tube, and 2 mL of solvent was added. The resulting suspension was shaken in a ThermoMixer C (Eppendorf, Hamburg, Germany) at 800 rpm for 48 h at the specified temperature. Subsequently, the saturated solution was separated using a 0.22 μm PTEF filter, diluted, and analyzed using HPLC. The solid phases after the experiment were collected and characterized by PXRD. Each experiment was repeated three times.
The HPLC was performed on an LC-20 AD Shimadzu Prominence model (Shimadzu, Kyoto, Japan) equipped with a PDA detector and a Luna C-18 column (150 mm × 4.6 mm i.d., 5 μm particle size, and 100 Å pore size). The column temperature was set to 40 °C. To achieve the proper separation of the cocrystal components, different ratios of the mobile phase, consisting of acetonitrile and a 0.1% aqueous solution of trifluoroacetic acid (35:65 v/v), were used. The flow rate was 1.0 mL·min^−1, and the injection volume was 20 μL. The UV detection of carbamazepine, 2-acetamidobenzoic acid, 3-acetamidobenzoic acid, and 4-acetamidobenzoic acid was carried out at the wavelengths of 285 nm, 249 nm, 220 nm, and 266 nm, respectively.

Details of series [2]: method as in doi:10.1016/j.molliq.2021.118320. The settings on record: pH 2.0, 310.2 K; value belongs to the coformer of the cocrystal named in the row; ref [103]; cited from earlier work.

As a reminder, the solubility is the concentration that dissolves in the medium under given conditions. As for `CC(=O)Nc1ccc(C(=O)O)cc1` [Cocrystal 4AcAmBA, 4-acetamidobenzoic acid], the “solubility ratio Cp,CBZ/Cp,coformer” value in series [1] (48 h) is 14.1. Further, the solubility at 48 h in series [1] (acetonitrile, 20 °C) is 10.1 ± 0.1 mM; in series [1] (acetonitrile, 25 °C), 11.45 ± 0.05 mM; in series [1] (acetonitrile, 30 °C), 12.8 ± 0.07 mM; in series [1] (acetonitrile, 35 °C), 14.73 ± 0.07 mM; in series [1] (acetonitrile, 40 °C) it was 16.6 ± 0.3 mM. The “Cp∙10^2, solubility of pure component” value in series [1] (acetonitrile) worked out at 1.010±0.010 mol/l. Also, in series [2], the “S0(CF), intrinsic solubility of coformer” value was 4.6 mM.
Consider `CC(=O)Nc1ccccc1C(=O)O` [Cocrystal 2AcAmBA, 2-acetamidobenzoic acid], for which the “solubility ratio Cp,CBZ/Cp,coformer” value in series [1] (Acetonitrile, Table S6) worked out at 5.7. The solubility at 48 h in series [1] (acetonitrile, 20 °C) amounted to 25 ± 0.8 mM. Further, the “S0(CF), intrinsic solubility of coformer” value in series [2] is 11.5 mM.
Consider `CC(=O)Nc1cccc(C(=O)O)c1` [Cocrystal 3AcAmBA, 3-acetamidobenzoic acid], for which the solubility at 48 h in series [1] (acetonitrile, 20 °C) turned out to be 4.3 ± 1 mM; in series [1] (methanol, 20 °C), 75 ± 0.5 mM; in series [1] (methanol, 25 °C), 87 ± 0.5 mM; in series [1] (methanol, 30 °C), 97 ± 0.5 mM; in series [1] (methanol, 35 °C), 109 ± 0.8 mM; in series [1] (methanol, 40 °C) it was 119.5 ± 0.6 mM. In addition, the “Cp∙10^2, solubility of pure component” value in series [1] (methanol) is reported as 7.50±0.05 mol/l. Also, the “S0(CF), intrinsic solubility of coformer” value in series [2] is 4.1 mM.

Source of the values: article PMC10052035, “Virtual Screening, Structural Analysis, and Formation Thermodynamics of Carbamazepine Cocrystals” (Pharmaceutics, 2023).
